Measurements reported in patent US12414932B2, “Arsinothricin and methods of treating infections using arsinothricin” (priority 2018, dated 2025).

System: Gram-negative and Gram-positive bacteria
Assay: Bacterial resistance (growth inhibition) assay, environmental isolates
Format: cell-based
Details: M9 medium, 24 h; except B. gladioli GSRB05 and P. putida KT2440; PT as L-PT

In the case of CP(=O)(O)CCC(N)C(=O)O (racemic) [PT, phosphinothricin, reference compound], the “concentration inhibiting each species to the same degree” value is reported as 400 µM.
